How the values were obtained:
MpMurA [1] = molecular target: T1, MpMurA (Marchantia polymorpha, UniProt A0A2R6X746); assay: phosphate release by malachite green; EPSP product by LC-MS/MS; format: biochemical; conditions: 1 mM S3P, 1 mM PEP; pH 7.5, 25 °C
T1 construct: gene MARPO_0032s0102; codon-optimised synthetic gene, E. coli BL21(DE3); His-tag removed with 3C protease; IMAC and SEC
T1 sequence (A0A2R6X746 46-482): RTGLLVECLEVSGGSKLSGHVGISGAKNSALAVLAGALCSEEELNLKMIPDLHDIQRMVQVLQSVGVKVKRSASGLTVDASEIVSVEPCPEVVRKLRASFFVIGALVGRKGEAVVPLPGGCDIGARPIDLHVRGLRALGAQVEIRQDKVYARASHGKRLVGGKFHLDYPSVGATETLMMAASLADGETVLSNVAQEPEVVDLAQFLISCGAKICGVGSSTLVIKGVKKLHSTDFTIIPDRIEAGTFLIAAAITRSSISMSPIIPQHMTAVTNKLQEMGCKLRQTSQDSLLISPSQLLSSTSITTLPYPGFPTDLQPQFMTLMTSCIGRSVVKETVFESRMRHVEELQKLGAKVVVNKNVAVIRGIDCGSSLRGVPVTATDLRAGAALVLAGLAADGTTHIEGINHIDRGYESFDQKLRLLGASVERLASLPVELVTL
Source text: phosphate release by malachite green; EPSP product by LC-MS/MS on MpMurA | Phosphate was produced by MpMurA in the presence of […] and PEP

MpMurA [2] = molecular target: T1, MpMurA; assay: phosphate release by malachite green; format: biochemical; conditions: 1 mM UDP-GlcNAc, 1 mM PEP; pH 7.5, 25 °C
AtEPSPS = molecular target: T2, AtEPSPS (Arabidopsis thaliana, UniProt P05466); assay: dose-response of enzyme activity, phosphate release by malachite green; format: biochemical
T2 construct: gene At2g45300; codon-optimised synthetic gene, E. coli BL21(DE3); His-tag removed with 3C protease; IMAC and SEC
T2 sequence (P05466 77-520): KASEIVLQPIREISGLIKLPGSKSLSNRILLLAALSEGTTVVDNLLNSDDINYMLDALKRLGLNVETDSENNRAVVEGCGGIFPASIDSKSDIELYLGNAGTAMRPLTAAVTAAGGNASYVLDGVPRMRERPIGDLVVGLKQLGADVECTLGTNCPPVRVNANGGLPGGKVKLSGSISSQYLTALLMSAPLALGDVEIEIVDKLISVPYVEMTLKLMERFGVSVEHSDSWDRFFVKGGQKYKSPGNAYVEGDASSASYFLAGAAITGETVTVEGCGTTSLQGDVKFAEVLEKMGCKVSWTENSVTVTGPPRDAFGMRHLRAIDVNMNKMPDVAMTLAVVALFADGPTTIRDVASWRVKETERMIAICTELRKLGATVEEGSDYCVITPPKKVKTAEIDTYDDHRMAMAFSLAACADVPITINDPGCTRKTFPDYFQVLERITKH

MpEPSPS = molecular target: T3, MpEPSPS (Marchantia polymorpha, UniProt A0A2R6X5Y9); assay: as above; format: biochemical
T3 construct: gene MARPO_0034s0104; codon-optimised synthetic gene, E. coli BL21(DE3); His-tag removed with 3C protease; IMAC and SEC
T3 sequence (A0A2R6X5Y9 79-527): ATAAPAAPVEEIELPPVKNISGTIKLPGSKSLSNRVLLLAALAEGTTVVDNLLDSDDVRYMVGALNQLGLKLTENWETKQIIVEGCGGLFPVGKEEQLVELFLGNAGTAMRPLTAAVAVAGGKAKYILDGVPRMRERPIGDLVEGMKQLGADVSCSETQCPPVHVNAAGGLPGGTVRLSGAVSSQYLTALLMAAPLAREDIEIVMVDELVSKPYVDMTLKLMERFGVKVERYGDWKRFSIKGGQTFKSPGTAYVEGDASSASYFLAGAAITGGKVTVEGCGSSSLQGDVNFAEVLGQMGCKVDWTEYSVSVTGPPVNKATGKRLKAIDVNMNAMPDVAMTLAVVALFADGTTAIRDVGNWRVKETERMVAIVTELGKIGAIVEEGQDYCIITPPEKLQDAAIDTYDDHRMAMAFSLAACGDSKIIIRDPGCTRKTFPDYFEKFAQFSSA

purified protein = substrate: C=C(OP(=O)(O)O)C(=O)O; assay: purified protein; conditions: co-substrate S3P, pH 7.5, 25 °C
[3] = substrate: O=C(O)C1=C[C@@H](OP(=O)(O)O)[C@@H](O)[C@H](O)C1; assay: Michaelis-Menten kinetics, phosphate release by malachite green; format: biochemical, Arabidopsis thaliana; conditions: co-substrate PEP, pH 7.5, 25 °C
[4] = substrate: C=C(OP(=O)(O)O)C(=O)O; assay: as above; format: biochemical, Marchantia polymorpha; conditions: co-substrate S3P, pH 7.5, 25 °C
[5] = substrate: O=C(O)C1=C[C@@H](OP(=O)(O)O)[C@@H](O)[C@H](O)C1; assay: as above; format: biochemical, Marchantia polymorpha; conditions: co-substrate PEP, pH 7.5, 25 °C

Question: For `O=C(O)C1=C[C@@H](OP(=O)(O)O)[C@@H](O)[C@H](O)C1` [S3P], which “phosphate release by malachite green; EPSP product by LC-MS/MS” value (MpMurA [1]) is on record?
Answer: Its value is “Phosphate was produced by MpMurA in the presence of S3P and PEP”.

Question: Which “phosphate release by malachite green” value (MpMurA [2]) does the source give for `CC(=O)N[C@H]1[C@@H](OP(=O)(O)OP(=O)(O)OC[C@H]2O[C@@H](n3ccc(=O)[nH]c3=O)[C@H](O)[C@@H]2O)O[C@H](CO)[C@@H](O)[C@@H]1O` [UDP-GlcNAc] here?
Answer: The value was “the activity of MpMurA with its canonical substrates, UDP-GlcNAc and PEP, were measured”.

Question: For `O=C(O)CNCP(=O)(O)O` [glyphosate], which IC50 (AtEPSPS) is on record?
Answer: Its IC50 is 14.5 ± 5.98 µM.

Question: And the IC50 (MpEPSPS)?
Answer: The IC50 was 9.6 ± 9.12 µM.

B1: AtEPSPS (Arabidopsis thaliana) (protein)
chain: KASEIVLQPIREISGLIKLPGSKSLSNRILLLAALSEGTTVVDNLLNSDDINYMLDALKRLGLNVETDSENNRAVVEGCGGIFPASIDSKSDIELYLGNAGTAMRPLTAAVTAAGGNASYVLDGVPRMRERPIGDLVVGLKQLGADVECTLGTNCPPVRVNANGGLPGGKVKLSGSISSQYLTALLMSAPLALGDVEIEIVDKLISVPYVEMTLKLMERFGVSVEHSDSWDRFFVKGGQKYKSPGNAYVEGDASSASYFLAGAAITGETVTVEGCGTTSLQGDVKFAEVLEKMGCKVSWTENSVTVTGPPRDAFGMRHLRAIDVNMNKMPDVAMTLAVVALFADGPTTIRDVASWRVKETERMIAICTELRKLGATVEEGSDYCVITPPKKVKTAEIDTYDDHRMAMAFSLAACADVPITINDPGCTRKTFPDYFQVLERITKH
notes: codon-optimised synthetic gene, E. coli BL21(DE3); His-tag removed with 3C protease; IMAC and SEC
Question: What does the source list for B1?
Answer: Km (purified protein): 163 ± 34 µM; Km [3]: 196.7 ± 44.63 µM

B2: MpEPSPS (Marchantia polymorpha) (protein)
chain: ATAAPAAPVEEIELPPVKNISGTIKLPGSKSLSNRVLLLAALAEGTTVVDNLLDSDDVRYMVGALNQLGLKLTENWETKQIIVEGCGGLFPVGKEEQLVELFLGNAGTAMRPLTAAVAVAGGKAKYILDGVPRMRERPIGDLVEGMKQLGADVSCSETQCPPVHVNAAGGLPGGTVRLSGAVSSQYLTALLMAAPLAREDIEIVMVDELVSKPYVDMTLKLMERFGVKVERYGDWKRFSIKGGQTFKSPGTAYVEGDASSASYFLAGAAITGGKVTVEGCGSSSLQGDVNFAEVLGQMGCKVDWTEYSVSVTGPPVNKATGKRLKAIDVNMNAMPDVAMTLAVVALFADGTTAIRDVGNWRVKETERMVAIVTELGKIGAIVEEGQDYCIITPPEKLQDAAIDTYDDHRMAMAFSLAACGDSKIIIRDPGCTRKTFPDYFEKFAQFSSA
notes: as for B1
Question: With B2 as the molecule, how does the Km [4] read?
Answer: Its Km is 180 ± 26 µM.

Question: What about the Km [5] of the same molecule?
Answer: Its Km is 119.7 ± 12.82 µM.

Source: PMC11588093, “MurA-catalyzed synthesis of 5-enolpyruvylshikimate-3-phosphate confers glyphosate tolerance in bryophytes” (Proceedings of the National Academy of Sciences of the …, 2024)
